In the NIST ThermoML archive (doi:10.1016/j.jct.2012.01.022):
± gives the expanded uncertainty stated by the source.

Conditions: 298.15 K, 101.33 kPa, Liquid; for viscosity: Capillary tube (Ostwald / Ubbelohde) method; for speed of sound: Sing-around technique in a fixed-path interferometer; for mass density: Vibrating tube method

viscosity [mPa·s]	speed of sound [m/s]	mass density [kg/m3]	SMILES
7.143 ± 0.041	1347.5 ± 0.9	821.794 ± 0.14	CCCCCCCCO [octan-1-ol]
4.439 ± 0.042	1303.2 ± 1.7	815.265 ± 0.41	CCCCCCO [hexan-1-ol]
1.405 ± 0.012	1671.6 ± 1.3	892.389 ± 0.23	NCCN [ethane-1,2-diamine]
11.19 ± 0.062	1379.8 ± 0.9	826.47 ± 0.14	CCCCCCCCCCO [decan-1-ol]
